Structures can show the parent of a compound that is named as a salt.

In one assay the test system is Acinetobacter baumannii ATCC17961. Nature of the assay: Antimicrobial susceptibility testing: 90% growth inhibitory concentration (IC90) determination. It is filed as cell-based. The note with it: Acinetobacter baumannii ATCC17961, Iso-Sensitest broth, OD 600 nm over 16 h. The method, boiled down: (§1)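 Compounds in twofold series (e.g. 50 to 0.097 μM final) in Iso-Sensitest broth, inoculated at ~5×10^5 CFU/ml, incubated at 35±2° C. OD600 was read every 20 minutes for 16 h. IC90 was derived from growth inhibition during logarithmic phase.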
For the compound `COc1ccc(-c2cnc3c(Nc4cc(F)c(C(=O)N5CCN(C(=O)[C@@H]6C[C@@H](O)CN6)CC5)c(Br)c4)nccn23)c(F)c1F` [Example 109, (4-(2-bromo-4-((3-(2,3-difluoro-4-methoxyphenyl)imidazo[1,2-a]pyrazin-8-yl)amino)-6-fluorobenzoyl)piperazin-1-yl)((2S,4R)-4-hydroxypyrrolidin-2-yl)methanone dihydrochloride], the IC90 – broadly, the concentration at which the effect reaches the 90% level – was determined as 69 nM. Still for that read-out and setting: next, `COc1ccc(-c2cnc3c(Nc4cc(F)c(C(=O)N5CCN(C(=O)[C@@H]6C[C@@H](O)CN6)CC5)c(Cl)c4)nccn23)c(F)c1F` [Example 50, (4-(2-chloro-4-((3-(2,3-difluoro-4-methoxyphenyl)imidazo[1,2-a]pyrazin-8-yl)amino)-6-fluorobenzoyl)piperazin-1-yl)((2S,4R)-4-hydroxypyrrolidin-2-yl)methanone dihydrochloride]: 82.1 nM. On to `O=C(c1ccc(Nc2nccn3c(-c4ccc(OCF)c(F)c4F)cnc23)cc1Cl)N1CCN(C(=O)[C@@H]2C[C@@H](O)CN2)CC1` [Example 112, [2-chloro-4-[[3-[2,3-difluoro-4-(fluoromethoxy)phenyl]imidazo [1,2-a]pyrazin-8-yl]amino]phenyl]-[4-[(2S,4R)-4-hydroxypyrrolidine-2-carbonyl]piperazin-1-yl]methanone trifluoroacetate], for which the IC90 is 22 nM. Same read-out and setting: next, `CNCC1(O)CCN(C(=O)c2ccc(Nc3nccn4c(-c5ccc(OC)c(F)c5)cnc34)cc2Cl)CC1` [Example 110, (2-chloro-4-((3-(3-fluoro-4-methoxyphenyl)imidazo[1,2-a]pyrazin-8-yl)amino)phenyl)(4-hydroxy-4-((methylamino)methyl)piperidin-1-yl)methanone]: 80 nM; `COc1ccc(-c2cnc3c(Nc4cc(F)c(C(=O)N5CCN(C(=O)[C@@H]6C[C@@H](O)CN6)CC5)c(F)c4)nccn23)c(F)c1F` [Example 49, (4-(4-((3-(2,3-difluoro-4-methoxyphenyl)imidazo[1,2-a]pyrazin-8-yl)amio)-2,6-difluorobenzoyl)piperazin-1-yl)((2S,4R)-4-hydroxypyrrolidin-2-yl)methanone dihydrochloride]: 72.2 nM; `CNCC1(O)CCN(C(=O)c2ccc(Nc3nccn4c(-c5ccc(OC)c(F)c5F)cnc34)cc2Cl)CC1` [Example 111, (2-chloro-4-((3-(2,3-difluoro-4-methoxyphenyl)imidazo[1,2-a]pyrazin-8-yl)amino)phenyl)(4-hydroxy-4-((methylamino)methyl)piperidin-1-yl)methanone]: 68 nM. Compound `O=C(c1ccc(Nc2nccn3c(-c4ccc(OC(F)F)c(F)c4F)cnc23)cc1F)N1CCN(C(=O)C2CCN(CC3CCNC3)CC2)CC1` (stereo not drawn) [Example 114, (4-(4-((3-(4-(difluoromethoxy)-2,3-difluorophenyl)imidazo[1,2-a]pyrazin-8-yl)amino)-2-fluorobenzoyl)piperazin-1-yl)(1-(pyrrolidin-3-ylmethyl)piperidin-4-yl)methanone bis(2,2,2-trifluoroacetate)] displayed an IC90 of 56 nM. `N#CCOc1ccc(-c2cnc3c(Nc4ccc(C(=O)N5CCN(C(=O)[C@@H]6C[C@@H](O)CN6)CC5)c(Cl)c4)nccn23)c(Cl)c1F` [Example 33, 2-[3-chloro-4-[8-[3-chloro-4-[4-[(2S,4R)-4-hydroxypyrrolidine-2-carbonyl]piperazine-1-carbonyl]anilino]imidazo[1,2-a]pyrazin-3-yl]-2-fluoro-phenoxy]acetonitrile Formate] returned an IC90 of 33.9 nM. Compound `N#CCOc1ccc(-c2cnc3c(Nc4ccc(C(=O)N5CCN(C(=O)CN6CCC(C(=O)O)C6)CC5)c(Cl)c4)nccn23)c(F)c1F` (stereo not drawn) [Example 108, 1-(2-(4-(2-chloro-4-((3-(4-(cyanomethoxy)-2,3-difluorophenyl)imidazo[1,2-a]pyrazin-8-yl)amino)benzoyl)piperazin-1-yl)-2-oxoethyl)pyrrolidine-3-carboxylic acid trifluoroacetate] displayed an IC90 of 350 nM. The same measure, in the same setting: next, `O=C(c1ccc(Nc2nccn3c(-c4ccc(OC(F)F)c(F)c4F)cnc23)cc1Cl)N1CCN(C(=O)[C@@H]2C[C@@H](O)CN2)CC1` [Example 113, [2-chloro-4-[[3-[4-(difluoromethoxy)-2,3-difluoro-phenyl]imidazo[1,2-a]pyrazin-8-yl]amino]phenyl]-[4-[(2S,4R)-4-hydroxypyrrolidine-2-carbonyl]piperazin-1-yl]methanone formate]: 22 nM; `COc1ccc(-c2cnc3c(Nc4ccc(C(=O)N5CCN(C(=O)[C@@H]6C[C@@H](O)CN6)CC5)c(Cl)c4)nccn23)c(F)c1F` [Example 35, [2-chloro-4-[[3-(2,3-difluoro-4-methoxy-phenyl)imidazo[1,2-a]pyrazin-8-yl]amino]phenyl]-[4-[(2S,4R)-4-hydroxypyrrolidine-2-carbonyl]piperazin-1-yl]methanone formate]: 41.2 nM.

In a further assay the test system is Acinetobacter baumannii ATCC17978. The assay is described as above. It is filed as cell-based. Particulars: Acinetobacter baumannii, ATCC17978, 16 h, 90% growth inhibitory concentration, Acinetobacter baumannii ATCC17978, Iso-Sensitest broth, OD 600 nm over 16 h; read-out: ATCC17978 IC90. The method, boiled down:
as §1
With `COc1ccc(-c2cnc3c(Nc4ccc(C(=O)N5CCC(C(=O)NCC(O)CN)CC5)c(Cl)c4)nccn23)cc1F` (stereo not drawn) [Example 60, N-(3-amino-2-hydroxypropyl)-1-[2-chloro-4-[[3-(3-fluoro-4-methoxyphenyl)imidazo[1,2-a]pyrazin-8-yl]amino]benzoyl]piperidine-4-carboxamide;hydrochloride], the IC90 is 140 nM. `COc1ccc(-c2cnc3c(Nc4ccc(C(=O)N5CCC(CN)CC5)c(Cl)c4)nccn23)cc1F` [Example 4, (4-(Aminomethyl)piperidin-1-yl)(2-chloro-4-((3-(3-fluoro-4-methoxyphenyl)imidazo[1,2-a]pyrazin-8-yl)amino)phenyl)methanone hydrochloride]: the IC90 turned out to be 120 nM.

The assay is the same for the next values; noted with them: Acinetobacter baumannii, ATCC17978, 16 h, read-out: ATCC17978 IC90.
For the compound `COC1CN(CCN2CCN(C(=O)c3ccc(Nc4nccn5c(-c6ccc(OCC#N)c(F)c6F)cnc45)cc3Cl)CC2)C1` [Example 97, 2-[4-[8-[3-chloro-4-[4-[2-(3-methoxyazetidin-1-yl)ethyl]piperazine-1-carbonyl]anilino]imidazo[1,2-a]pyrazin-3-yl]-2,3-difluorophenoxy]acetonitrile; 2,2,2-trifluoroacetic acid], the IC90 was 100 nM.

For the compound `CC(C#N)Oc1ccc(-c2cnc3c(Nc4ccc(C(=O)N5CCN(CCN(C)C)CC5)c(Cl)c4)nccn23)c(F)c1F` (stereo not drawn) [Example 41, 2-[4-[8-[3-chloro-4-[4-[2-(dimethylamino)ethyl]piperazine-1-carbonyl]anilino]imi-dazo[1,2-a]pyrazin-3-yl]-2,3-difluoro-phenoxy]propanenitrile formate], the IC90 is 130 nM.

(Values after patent publication US20230022724A1, “NOVEL IMIDAZOPYRAZINE DERIVATIVES” (Hoffmann-La Roche Inc., priority 2018, published 2023).)
